The record followed here is US20250129078A1, “ERBB2 INHIBITORS” (Cogent Biosciences, Inc., priority 2023, published 2025).

Assay [1] has as its target EGFR wild type (Homo sapiens (Human), UniProt P00533). Put plainly: ErbB cellular phosphorylation assay (phospho-EGFR ELISA), HEK-293 cells expressing EGFR wild type, EGF stimulated. The format is cell-based. The following applies: 1 h treatment. The method, then:
(§1) HEK-293 cells were engineered to constitutively express ErbB2 mutant L755S or EGFR wild type (constructs obtained from GenScript, Piscataway, NJ). Cells were seeded in poly-D-lysine coated, 96-well plates at a density of 50,000 cells/well in complete medium (DMEM supplemented with 10% fetal bovine serum and G418) and incubated for 24 h at 37° C., 5% CO2 prior to treatment. Cells were treated with compound using three-fold dilutions at final concentrations ranging from […] for 1 h at 37° C., 5% CO2. EGFR-WT cells were stimulated with 500 ng/mL recombinant human EGF (R&D Systems, 236-EG) for an additional 5 min. After compound incubation, medium was removed from the plate, and cells were lysed in buffer containing protease and phosphatase inhibitors ([…]). Cell lysates were analyzed by enzyme-linked immunosorbent assay (ELISA). The ELISAs were performed to measure phosphorylated ErbB2 or phosphorylated EGFR levels, respectively (R&D Systems, DYC-1768, Human Phospho-ErbB2 DuoSet ELISA; DYC1095, Human Phospho-EGFR DuoSet IC ELISA) according to the manufacturer's instructions. Absorbance was measured at 450 nm using a BioTek Cytation 5 plate reader (Agilent, Santa Clara, CA) and IC50 values were calculated using a 4-parameter fit.

In assay [2] the target is EGFR WT (Homo sapiens (Human), UniProt P00533). Briefly: ErbB enzyme assay (CisBio HTRF-KinEASE-TK), EGFR WT. The format is biochemical. The following applies: ATP at Km (25 μM), 1 h incubation. The procedure, abridged: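 Compounds, serially diluted three-fold, were incubated with enzyme for 1 h at ambient temperature. Detection reagents were then added for a further hour, and the 655/620 nm HTRF ratio was normalised to uninhibited and pre-quenched controls. IC50 was fitted with a four-parameter logistic model.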
A general note: TR-FRET usually uses a lanthanide donor and a delayed reading to cut background.

Assay [3] deals with ErbB2 V777L (Homo sapiens (Human), UniProt P04626, V777L). Put plainly: ErbB enzyme assay (CisBio HTRF-KinEASE-TK), ErbB2 V777L. Format: biochemical. Put shortly:
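HTRF KinEASE-TK tyrosine-kinase read-out of substrate phosphorylation after a final 1 h at ambient temperature, from the 655/620 nm emission ratio.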

Assay [4] addresses ErbB2 mutant L755S (Homo sapiens (Human), UniProt P04626, L755S). Briefly: ErbB cellular phosphorylation assay (phospho-ErbB2 ELISA), HEK-293 cells expressing ErbB2 L755S. The format is cell-based. The following applies: 1 h treatment. How it is done:
as §1, with “Cells” for “HEK-293 cells were engineered to constitutively express ErbB2 mutant L755S or EGFR wild type (constructs obtained from GenScript, Piscataway, NJ). Cells”
A general note: In an ELISA, binding on a coated surface is turned into a signal by an enzyme label.

Counter-ions that a name gives are not always drawn.

In general, IC50 refers to the concentration needed to halve the response being measured. A lower IC50 goes with greater potency.

Sequence of EGFR wild type (P00533 25-1210): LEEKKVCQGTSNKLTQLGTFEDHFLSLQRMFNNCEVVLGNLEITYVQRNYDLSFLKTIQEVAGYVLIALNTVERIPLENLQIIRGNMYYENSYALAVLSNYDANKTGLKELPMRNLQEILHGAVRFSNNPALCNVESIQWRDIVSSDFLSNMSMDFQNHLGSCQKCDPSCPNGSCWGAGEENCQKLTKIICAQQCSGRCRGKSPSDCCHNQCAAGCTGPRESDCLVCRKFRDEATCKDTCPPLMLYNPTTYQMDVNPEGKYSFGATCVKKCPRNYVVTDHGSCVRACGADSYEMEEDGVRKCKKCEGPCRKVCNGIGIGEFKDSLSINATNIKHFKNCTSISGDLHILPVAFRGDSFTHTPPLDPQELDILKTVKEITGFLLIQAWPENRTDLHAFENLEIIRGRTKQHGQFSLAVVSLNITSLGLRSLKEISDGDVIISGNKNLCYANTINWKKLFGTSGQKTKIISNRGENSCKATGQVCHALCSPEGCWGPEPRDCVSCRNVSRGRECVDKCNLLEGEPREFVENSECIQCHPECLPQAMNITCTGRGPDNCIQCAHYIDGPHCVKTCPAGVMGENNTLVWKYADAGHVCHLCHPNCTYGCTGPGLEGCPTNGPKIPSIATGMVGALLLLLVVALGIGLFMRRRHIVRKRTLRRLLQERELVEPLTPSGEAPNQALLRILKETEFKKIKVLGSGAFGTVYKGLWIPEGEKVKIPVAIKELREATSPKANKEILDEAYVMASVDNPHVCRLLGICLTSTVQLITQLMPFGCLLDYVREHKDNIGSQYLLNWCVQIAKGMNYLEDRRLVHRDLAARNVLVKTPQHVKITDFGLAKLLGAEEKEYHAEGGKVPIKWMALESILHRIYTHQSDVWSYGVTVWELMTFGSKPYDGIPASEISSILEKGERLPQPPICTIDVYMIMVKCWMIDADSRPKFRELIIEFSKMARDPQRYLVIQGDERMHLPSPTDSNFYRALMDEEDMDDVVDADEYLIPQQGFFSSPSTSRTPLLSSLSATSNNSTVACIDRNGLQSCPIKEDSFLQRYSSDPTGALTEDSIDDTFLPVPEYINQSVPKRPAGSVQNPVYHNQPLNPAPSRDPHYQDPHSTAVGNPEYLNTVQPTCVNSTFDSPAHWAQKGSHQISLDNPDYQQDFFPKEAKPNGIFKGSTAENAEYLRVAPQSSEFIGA
Sequence of EGFR WT (P00533 25-1210): as above
Sequence of ErbB2 V777L (P04626 23-1255 V777L): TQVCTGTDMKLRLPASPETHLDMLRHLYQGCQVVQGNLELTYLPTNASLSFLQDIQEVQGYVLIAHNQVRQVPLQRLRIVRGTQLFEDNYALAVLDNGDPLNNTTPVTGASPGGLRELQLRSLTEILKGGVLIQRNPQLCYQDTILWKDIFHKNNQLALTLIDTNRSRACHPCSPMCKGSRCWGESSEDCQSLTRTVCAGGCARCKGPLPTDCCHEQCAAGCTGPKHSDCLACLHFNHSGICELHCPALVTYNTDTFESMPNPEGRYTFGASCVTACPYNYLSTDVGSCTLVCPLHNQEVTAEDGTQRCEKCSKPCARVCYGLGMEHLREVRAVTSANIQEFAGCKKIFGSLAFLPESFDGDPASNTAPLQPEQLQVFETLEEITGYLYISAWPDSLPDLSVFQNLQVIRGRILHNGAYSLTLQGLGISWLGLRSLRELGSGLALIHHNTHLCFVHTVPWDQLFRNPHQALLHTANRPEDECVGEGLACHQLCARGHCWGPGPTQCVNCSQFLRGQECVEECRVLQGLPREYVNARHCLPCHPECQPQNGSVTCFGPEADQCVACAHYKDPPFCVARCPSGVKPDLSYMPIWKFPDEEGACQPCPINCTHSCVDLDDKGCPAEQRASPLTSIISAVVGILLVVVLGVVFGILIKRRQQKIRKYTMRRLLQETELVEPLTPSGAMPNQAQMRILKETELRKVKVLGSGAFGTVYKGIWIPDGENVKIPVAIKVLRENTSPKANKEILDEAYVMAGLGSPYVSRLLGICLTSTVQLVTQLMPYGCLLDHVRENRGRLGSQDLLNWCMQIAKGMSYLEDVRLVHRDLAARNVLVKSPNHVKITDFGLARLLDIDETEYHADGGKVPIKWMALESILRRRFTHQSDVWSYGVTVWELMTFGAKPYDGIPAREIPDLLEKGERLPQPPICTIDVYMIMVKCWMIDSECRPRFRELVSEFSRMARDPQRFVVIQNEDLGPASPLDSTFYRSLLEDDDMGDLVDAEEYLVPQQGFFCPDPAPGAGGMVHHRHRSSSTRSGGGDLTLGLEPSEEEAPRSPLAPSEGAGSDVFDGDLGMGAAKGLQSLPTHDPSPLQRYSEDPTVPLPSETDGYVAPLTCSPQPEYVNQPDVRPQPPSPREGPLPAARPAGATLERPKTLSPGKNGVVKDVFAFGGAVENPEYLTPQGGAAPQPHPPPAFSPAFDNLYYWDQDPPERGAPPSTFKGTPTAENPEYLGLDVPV
Sequence of ErbB2 mutant L755S (P04626 23-1255 L755S): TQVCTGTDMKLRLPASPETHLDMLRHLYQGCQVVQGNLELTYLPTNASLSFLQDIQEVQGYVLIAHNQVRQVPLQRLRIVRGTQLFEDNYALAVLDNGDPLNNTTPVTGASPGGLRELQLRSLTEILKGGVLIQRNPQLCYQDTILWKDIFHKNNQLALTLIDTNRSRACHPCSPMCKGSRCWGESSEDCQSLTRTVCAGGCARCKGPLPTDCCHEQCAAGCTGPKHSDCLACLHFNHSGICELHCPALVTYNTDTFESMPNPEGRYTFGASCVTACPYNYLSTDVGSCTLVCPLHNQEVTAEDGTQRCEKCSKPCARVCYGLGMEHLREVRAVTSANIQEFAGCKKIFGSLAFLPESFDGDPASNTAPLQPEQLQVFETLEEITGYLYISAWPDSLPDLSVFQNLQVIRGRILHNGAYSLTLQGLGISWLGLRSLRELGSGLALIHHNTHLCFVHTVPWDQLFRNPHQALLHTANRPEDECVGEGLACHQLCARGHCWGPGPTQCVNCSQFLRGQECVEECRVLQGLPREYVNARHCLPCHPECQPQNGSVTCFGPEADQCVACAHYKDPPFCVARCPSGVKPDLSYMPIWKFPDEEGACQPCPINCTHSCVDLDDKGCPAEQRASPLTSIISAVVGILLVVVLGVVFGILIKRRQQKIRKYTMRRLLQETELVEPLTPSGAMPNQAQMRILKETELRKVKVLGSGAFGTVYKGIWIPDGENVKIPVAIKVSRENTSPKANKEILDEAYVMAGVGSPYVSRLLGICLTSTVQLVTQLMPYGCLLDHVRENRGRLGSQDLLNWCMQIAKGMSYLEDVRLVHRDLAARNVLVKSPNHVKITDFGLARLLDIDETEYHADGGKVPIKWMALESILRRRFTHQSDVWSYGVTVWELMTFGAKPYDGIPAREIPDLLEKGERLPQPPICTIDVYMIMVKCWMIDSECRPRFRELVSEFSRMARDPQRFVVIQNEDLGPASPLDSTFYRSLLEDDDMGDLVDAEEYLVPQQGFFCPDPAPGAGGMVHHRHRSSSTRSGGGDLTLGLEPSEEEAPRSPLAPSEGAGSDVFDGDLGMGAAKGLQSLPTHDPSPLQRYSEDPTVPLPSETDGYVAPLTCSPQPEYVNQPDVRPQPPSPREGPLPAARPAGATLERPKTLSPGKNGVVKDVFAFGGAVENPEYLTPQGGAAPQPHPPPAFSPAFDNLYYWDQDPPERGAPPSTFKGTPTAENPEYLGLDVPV

On to `C=CC(=O)N1C2CCC1CN(c1ccc3ncnc(Nc4ccc(Oc5ccc6c(c5)nnn6C)c(C)c4)c3n1)C2` [Compound 70, 1-(3-(4-((3-methyl-4-((1-methyl-1H-benzo[d][1,2,3]triazol-5-yl)oxy)phenyl)amino)pyrido[3,2-d]pyrimidin-6-yl)-3,8-diazabicyclo[3.2.1]octan-8-yl)prop-2-en-1-one], for which the IC50 lay in the range of 1000 to 5000 nM in assay [1] and 100 to 500 nM in assay [2].
Turning to `C=CC(=O)N1CCN(c2ncc3ncnc(Nc4ccc(Oc5cc(F)c6c(c5)nnn6C)c(C)c4F)c3n2)CC1` [Compound 33, 1-(4-(8-((2-fluoro-4-((7-fluoro-1-methyl-1H-benzo[d][1,2,3]triazol-5-yl)oxy)-3-methylphenyl)amino)pyrimido [5,4-d]pyrimidin-2-yl)piperazin-1-yl)prop-2-en-1-one], the half-inhibitory concentration (IC50) in assay [1] is at least 5000 nM; in assay [2], under 50 nM; in assay [3], 50 to 100 nM; in assay [4], under 100 nM.
On to `C=CC(=O)N1CCC(Sc2ncc3ncnc(Nc4ccc(Oc5ccc6c(c5)ncn6C)c(C)c4F)c3n2)CC1` [Compound 107, 1-(4-((8-((2-fluoro-3-methyl-4-((1-methyl-1H-benzo[d]imidazol-5-yl)oxy)phenyl)amino)pyrimido[5,4-d]pyrimidin-2-yl)thio)piperidin-1-yl)prop-2-en-1-one], for which the IC50 in assay [1] was at least 5000 nM; in assay [3], 50 to 100 nM; in assay [4], 100 to 500 nM.
Take `C=CC(=O)N1CCN(c2ncc3ncnc(Nc4cc(C)c(Oc5ccc6c(c5)ncn6C)cc4OC)c3n2)CC1` [Compound 11, 1-(4-(8-((2-methoxy-5-methyl-4-((1-methyl-1H-benzo[d]imidazol-5-yl)oxy)phenyl)amino)pyrimido[5,4-d]pyrimidin-2-yl)piperazin-1-yl)prop-2-en-1-one 2,2,2-trifluoroacetate]: the half-inhibitory concentration (IC50) is at least 5000 nM in assay [1] and 100 to 500 nM in assay [2].
Consider `C=CC(=O)N1CCN(c2ncc3ncnc(Nc4ccc(Oc5cc(F)c6c(c5)nnn6C)c(C)c4F)c3n2)C[C@H]1C` [Compound 49, (R)-1-(4-(8-((2-fluoro-4-((7-fluoro-1-methyl-1H-benzo[d][1,2,3]triazol-5-yl)oxy)-3-methylphenyl)amino)pyrimido[5,4-d]pyrimidin-2-yl)-2-methylpiperazin-1-yl)prop-2-en-1-one], for which the half-inhibitory concentration (IC50) in assay [1] was at least 5000 nM; in assay [2], under 50 nM; in assay [3], 100 to 500 nM; in assay [4] it was 100 to 500 nM.
Take `C=CC(=O)N1CCN(c2ncc3ncnc(Nc4ccc(Oc5cc(F)c6c(c5)nnn6C)c(C)c4)c3n2)CC1` [Compound 4, 1-(4-(8-((4-((7-fluoro-1-methyl-1H-benzo[d][1,2,3]triazol-5-yl)oxy)-3-methylphenyl)amino)pyrimido[5,4-d]pyrimidin-2-yl)piperazin-1-yl)prop-2-en-1-one]: the half-inhibitory concentration (IC50) is 1000 to 5000 nM in assay [1] and under 50 nM in assay [2].
Taken in the same sequence, the figures for `C=CC(=O)N1CCN(c2ccc3ncnc(Nc4ccc(Oc5ccc6c(c5)nnn6C)c(C)c4F)c3n2)CC1` [Compound 95, 1-(4-(4-((2-fluoro-3-methyl-4-((1-methyl-1H-benzo[d][1,2,3]triazol-5-yl)oxy)phenyl)amino)pyrido[3,2-d]pyrimidin-6-yl)piperazin-1-yl)prop-2-en-1-one] were at least 5000 nM and under 50 nM.
`C=CC(=O)N1CCN(c2ccc3ncnc(Nc4ccc(Oc5ccc6c(c5)nnn6C)c(C)c4)c3n2)[C@@H](C)C1` [Compound 90, (S)-1-(3-methyl-4-(4-((3-methyl-4-((1-methyl-H-benzo[d][1,2,3]triazol-5-yl)oxy)phenyl)amino)pyrido[3,2-d]pyrimidin-6-yl)piperazin-1-yl)prop-2-en-1-one 2,2,2-trifluoroacetate]: the IC50 was at least 5000 nM in assay [1] and 100 to 500 nM in assay [2].
On to `C=CC(=O)N1CCN(c2ncc3ncnc(Nc4ccc(Oc5ccc6c(c5)ncn6C(F)F)c(C)c4F)c3n2)CC1` [Compound 21, 1-(4-(8-((4-((1-(difluoromethyl)-1H-benzo[d]imidazol-5-y1)oxy)-2-fluoro-3-methylphenyl)amino)pyrimido[5,4-d]pyrimidin-2-yl)piperazin-1-yl)prop-2-en-1-one], for which the IC50 is 1000 to 5000 nM in assay [1] and under 50 nM in assay [2].
For `C=CC(=O)N1CC=C(c2ccc3ncnc(Nc4ccc(Oc5ccc6c(c5)nnn6C)c(C)c4)c3n2)C1` [Compound 110, 1-(3-(4-((3-methyl-4-((1-methyl-1H-benzo[d][1,2,3]triazol-5-yl)oxy)phenyl)amino)pyrido[3,2-d]pyrimidin-6-yl)-2,5-dihydro-1H-pyrrol-1-yl)prop-2-en-1-one] the same measures were at least 5000 nM and 50 to 100 nM.
Taken in the same sequence, the figures for `C=CC(=O)N1C2CCC1CN(c1ncc3ncnc(Nc4cc(C)c(Oc5cc(F)c6c(c5)ncn6C)cc4OC)c3n1)C2` [Compound 42, 1-(3-(8-((4-((7-fluoro-1-methyl-1H-benzo[d]imidazol-5-yl)oxy)-2-methoxy-5-methylphenyl)amino)pyrimido[5,4-d]pyrimidin-2-y1)-3,8-diazabicyclo[3.2.1]octan-8-yl)prop-2-en-1-one] were at least 5000 nM and 100 to 500 nM.
Consider `C=CC(=O)N1CCN(c2ncc3ncnc(Nc4ccc(Oc5ccc6c(c5)nnn6C)c(C)c4)c3n2)C[C@@H]1CO` [Compound 25, (R)-1-(2-(hydroxymethyl)-4-(8-((3-methyl-4-((1-methyl-1H-benzo[d][1,2,3]triazol-5-yl)oxy)phenyl)amino)pyrimido[5,4-d]pyrimidin-2-y1)piperazin-1-yl)prop-2-en-1-one], for which the IC50 is at least 5000 nM in assay [1] and 100 to 500 nM in assay [2].
`C=CC(=O)N1C2CC1CN(c1ncc3ncnc(Nc4cc(C)c(Oc5ccc6c(c5)nnn6C)cc4OC)c3n1)C2` [Compound 13, 1-(3-(8-((2-methoxy-5-methyl-4-((1-methyl-1H-benzo[d][1,2,3]triazol-5-yl)oxy)phenyl)amino)pyrimido[5,4-d]pyrimidin-2-y1)-3,6-diazabicyclo[3.1.1]heptan-6-yl)prop-2-en-1-one]: the 50% inhibitory concentration (IC50) in assay [2] and in assay [3] was 100 to 500 nM each time.
Regarding `C=CC(=O)N1CCC12CN(c1ncc3ncnc(Nc4ccc(Oc5ccc6c(c5)nnn6C)c(C)c4F)c3n1)C2` [Compound 67, 1-(6-(8-((2-fluoro-3-methyl-4-((1-methyl-1H-benzo[d][1,2,3]triazol-5-yl)oxy)phenyl)amino)pyrimido[5,4-d]pyrimidin-2-yl)-1,6-diazaspiro[3.3]heptan-1-yl)prop-2-en-1-one], the IC50 in assay [2] and in assay [3] was 100 to 500 nM in each case.
As for `C=CC(=O)N1CC=C(c2ccc3ncnc(Nc4ccc(Oc5ccc6c(c5)nnn6C)c(C)c4)c3n2)CC1` [Compound 109, 1-(4-(4-((3-methyl-4-((1-methyl-1H-benzo[d][1,2,3]triazol-5-yl)oxy)phenyl)amino)pyrido[3,2-d]pyrimidin-6-yl)-3,6-dihydropyridin-1(2H)-yl)prop-2-en-1-one trifluoroacetate], the values for the IC50 in assay [1] and in assay [2] were at least 5000 nM and 100 to 500 nM, respectively.
Turning to `C=CC(=O)N[C@@H]1CCCN(c2ccc3ncnc(Nc4ccc(Oc5ccc6c(c5)nnn6C)c(C)c4F)c3n2)C1` [Compound 260, (R)-N-(1-(4-((2-fluoro-3-methyl-4-((1-methyl-1H-benzo[d][1,2,3]triazol-5-yl)oxy)phenyl)amino)pyrido[3,2-d]pyrimidin-6-yl)piperidin-3-yl)acrylamide], the IC50 in assay [2] and in assay [3] was 100 to 500 nM in each case.
Take `C=C(COC)C(=O)N1CCN(c2ccc3ncnc(Nc4ccc(Oc5ccc6c(c5)nnn6C)c(C)c4)c3n2)CC1` [Compound 366, 2-(methoxymethyl)-1-(4-(4-((3-methyl-4-((1-methyl-1H-benzo[d][1,2,3]triazol-5-yl)oxy)phenyl)amino)pyrido[3,2-d]pyrimidin-6-yl)piperazin-1-yl)prop-2-en-1-one]: the results for the IC50 in assay [2] and in assay [3] were at least 1000 nM and 500 to 1000 nM, respectively.
